# Experimental data from patent publication US7393857B2, “Use of 5-HT3 receptor antagonists for treating musculoskeletal diseases” (Novasearch AG, priority 1999, dated 2008).
# Assays:
# Format in all cases: in vivo, human
# [1] = test system: patient with activated gonarthritis with effusion; experiment: Gonarthrosis, intra-articular injection (Example 4e); details: intra-articular 2 mg; for pain at rest on the visual analog scale for pain (0-100): before 43
# Description: (§1) Pain is subsequently determined on a visual analogue scale (VAS) that goes from 0 mm (no pain) to 100 mm (strongest pain). • 4a) Enthesiopathy (Insertion Tendopathy) (with infiltration): • (i) patient; Diagnosis: epicondylitis. Rest pain before local injection of tropisetron 30 mm, 7 days later 0 mm. • (ii) patient, diagnosis: periarthropathia humeroscapularis. Rest pain before local injection of tropisetron 85 mm, 7 days after local injection 45 mm. • (iii) Patient, diagnosis: epicondylitis. Rest pain before local injection of tropisetron 35 mm, 7 days thereafter 0 mm. • 4b) Rheumatoid arthritis (intraarticular injection): • (i) patient.
# Patient has activated gonarthritis with effusion for 2 months. Only short-term pain reduction by means of non-steroidal antiphlogistics could be achieved. Following an intra-articular injection with 2 mg tropisetron, pain at rest after 24 hours on the visual analog scale for pain (0-100) sinks from 43 to 25, after 2 days to 13, after 7 days to 10 and in a follow-up check after 17 days to 4. The analog values for pain under strain are 75, 45, 10 and 10, respectively. The effusion is gone after 7 days, as is the overheating of the knee joint.
# [2] = test system: patient with cervical syndrome; experiment: Spinal syndrome: cervical syndrome, i.v. administration (Examples 5 and 6(i)); details: 2 mg i.v., before injection 68 mm
# Description: as §1
# Patient, diagnosis: cervical syndrome. Before injection of 2 mg tropisetron 68 mm rest pain, 24 hours later 35 mm, at day 7 18 mm.
# Patient, diagnosis: cervical syndrome. Before i.v. injection of 2 mg tropisetron 68 mm rest pain, 24 hours later 35 mm, at day 7 18 mm. • (ii) Lumbalgia: […]
# [3] = test system: patient with Morbus Still; experiment: Left knee joint irritation (Morbus Still), intraarticular injection (Example 4c); details: for knee joint circumference: before 44 cm; for pain under strain (VAS): before 70; for pain at rest in the VAS (0-100): before 98
# Description: as §1
# Patient, Morbus Still diagnosed 1.5 years ago. Despite basic treatment with 15 mg methotrexat per week and 20 mg prednisolone per day, the patient suffers from swelling and overheating of the left knee joint for the first time in February 1999. Pain at rest in the VAS 98 (0-100), pain under strain 70. Obvious articular effusion. Knee joint circumference 44 cm, straightening/bending 0°-10°, 115°. 24 hours after an intraarticular injection with 2 mg tropisetron pain at rest in the Visual Analog Scale (VAS) 0, pain under strain 70. […] 7 days later pain at rest in the VAS 0, pain under strain 57, straightening/bending 0°,0°,130°, knee joint circumference 40.5 cm. • 4e) Gonarthrosis: […]
# [4] = test system: patient with repeated exudation from the knee joint consequential to damage to the meniscus; experiment: Clinical case: repeated knee joint exudation after meniscus damage, intra-articular tropisetron (Example 2, first patient); details: 2 mg intra-articularly
# Description: Prior to the trial the patient received injections of glucocorticoid. The patient receives an injection of 2 mg of tropisetron administered intra-articularly.
# [5] = test system: patients exhibiting implant/insertion tendopathy; experiment: Clinical trial: implant/insertion tendopathy, local injection of tropisetron (Example 3); details: 2 mg injected once in the area of greatest pain
# Description: The condition treated results in the case of the first patient from epicondylitis radialis, in the case of the second patient from insertion tendopathy in the area of insertion of the deltoid muscle and, in the case of the third patient from an enthesiopathy of the Malleolus lateralis. In all three cases, tropisetron is injected once at a dosage of 2 mg in the area of greatest pain, directly into the tissues. In all three cases severity of pain decreases within a period of 60 min. and virtually complete remittal is achieved within 24 hrs., indicating remission from disease remission.
# [6] = test system: patients with epicondylitis or periarthropathia humeroscapularis; experiment: Enthesiopathy (insertion tendopathy) with infiltration, pain on VAS (Example 4a); details: 7 days after local injection
# Description: as §1
# [7] = test system: patients exhibiting rheumatoid arthritis and severe consequential synovial inflammation; experiment: Clinical trial: synovial inflammation/synovitis in rheumatoid arthritis, intraarticular tropisetron (Example 1); details: 2 mg intraarticularly once
# [8] = test system: patient with damage to the meniscus and arthritic change leading to synovial irritation with knee joint effusion; experiment: Clinical case: synovial irritation with knee joint effusion, i.v. tropisetron (Example 2, second patient)
# Description: […] 2 mg doses of tropisetron are administered i.v. over a period of 17 days with 15 injections, one each day with a 2 days pause in therapy.
# [9] = 24 hours after intraarticular injection of 2 mg
# [10] = 7 days later, intraarticular 2 mg
smiles,measurement,setting,value
"CN1[C@@H]2CC[C@H]1C[C@@H](OC(=O)c1c[nH]c3ccccc13)C2 [tropisetron, Indol-3-yl-carboxylic acid-endo-8-methyl-8-aza-bicyclo[3,2,1]-oct-3-yl-ester]",pain at rest on the visual analog scale for pain (0-100),[1]; after 24 hours,25
same,pain at rest on the visual analog scale for pain (0-100),[1]; after 2 days,13
same,effusion,[1]; after 7 days,gone
same,overheating of the knee joint,[1]; after 7 days,gone
same,pain at rest on the visual analog scale for pain (0-100),[1]; after 7 days,10
same,pain at rest on the visual analog scale for pain (0-100),[1]; follow-up check after 17 days,4
same,"pain under strain, visual analog scale (0-100)","[1]; fourth of four printed values, time point unclear (7 or 17 days)",10
same,"pain under strain, visual analog scale (0-100)","[1]; second of four printed values, presumably after 24 hours, first value (before) 75",45
same,"pain under strain, visual analog scale (0-100)","[1]; third of four printed values, time point unclear (2 or 7 days)",10
same,rest pain (VAS),[2]; 24 hours later,35 mm
same,rest pain (VAS),[2]; at day 7,18 mm
same,joint swelling and effusion,[3]; [9],significant reduction of joint swelling and effusion
same,knee joint circumference,[3]; [9],41 cm
same,pain under strain (VAS),[3]; [9],70
same,pain at rest in the VAS (0-100),"[3]; 24 hours after intraarticular injection of 2 mg, on methotrexat and prednisolone",0
same,knee joint circumference,[3]; [10],40.5 cm
same,pain under strain (VAS),[3]; [10],57
same,pain at rest in the VAS (0-100),[3]; [10],0
same,pain,[4]; after 45 min.,marked reduction of pain
same,effusion from the knee joint,[4]; after 5 hours,major reduction of effusion
same,symptoms,"[4]; without further therapy, observation period of 5 days",free of symptoms
same,further improvements after injection,[5],increase of strength and of flexibility of the affected body part
same,period within which severity of pain decreases,[5]; all three patients,≤ 60 min
same,time within which virtually complete remittal is achieved,[5]; all three patients,≤ 24 h
same,rest pain (VAS),"[6]; patient (i), epicondylitis, before injection 30 mm",0 mm
same,rest pain (VAS),"[6]; patient (ii), periarthropathia humeroscapularis, before injection 85 mm",45 mm
same,rest pain (VAS),"[6]; patient (iii), epicondylitis, before injection 35 mm",0 mm
same,symptoms,[7]; both patients examined over one week following treatment,free of symptoms
same,remission from pain,"[7]; two patients (shoulder joint, knee joint), within a few hours",almost complete remission from pain
same,movement of the knee joint,[8]; 2 mg i.v. daily,clearly improved
same,time until exudation from the knee joint is completely inhibited,"[8]; 2 mg i.v. daily, without any other medication",≤ 8 days
same,symptoms,"[8]; 2 mg i.v., 15 injections over 17 days, following continuation of injections",virtually free of symptoms
same,persistence of improvement in condition after completion of therapy,"[8]; 2 mg i.v., 15 injections over 17 days, observation following completion of therapy",continues over a further 7 days observation
same,pain,"[8]; 2 mg i.v., 24 hours after the first i.v. injection",significant improvement of pain
